This passage reports Ki results from patent US5663148A, “Anaphylatoxin receptor ligands containing lipophilic residues” (Abbott Laboratories, priority 1994, dated 1997).

*1 amine or outer side, *2 acyl side, *3 side chain or, on linkers, in order; H or OH if unused. Where a SMILES comes first, the peptide text is derived from it. [ ]: non-standard residue; d: D form. The star is where a group is joined. X11 = O=C([C@H](CC1CCCCC1)N(CCCc1ccccc1)[*:1])[*:2]; d(hhPhe) = N[C@H](CCCc1ccccc1)C(=O)O; Hydrocinnamoyl = O=C(CCc1ccccc1)*

The target of the test is T1, C5a receptor (Homo sapiens, UniProt P21730).
T1 construct: from tissue; host or cells: polymorphonuclear leukocyte (PMNL) membrane fragments
T1 sequence (P21730 1-350): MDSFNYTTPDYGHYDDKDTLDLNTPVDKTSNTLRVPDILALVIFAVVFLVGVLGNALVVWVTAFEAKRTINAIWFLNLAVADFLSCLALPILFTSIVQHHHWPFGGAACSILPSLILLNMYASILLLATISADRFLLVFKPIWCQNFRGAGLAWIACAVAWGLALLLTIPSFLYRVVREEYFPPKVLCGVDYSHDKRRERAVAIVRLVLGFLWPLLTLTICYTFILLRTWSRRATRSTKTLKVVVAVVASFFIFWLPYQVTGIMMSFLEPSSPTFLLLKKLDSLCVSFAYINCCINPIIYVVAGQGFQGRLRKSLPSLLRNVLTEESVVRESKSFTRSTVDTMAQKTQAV
The test can be described thus: Anaphylatoxin (C5a) receptor binding Ki determination, 125I-C5a on PMNL membrane fragments. As to conditions: read-out: Ki (In vitro C5a Receptor Binding Potency). How it is done:
The membrane-bound radiolabeled C5a was separated from the free radiolabeled C5a by filtration, and the recovered gamma radioactivity was measured. […] Free and membrane-bound ligand were separated by filtration.
As usually defined, the Ki is the dissociation constant of the complex between target and ligand, obtained from inhibition or displacement. As for `CC(C)C[C@H](NC(=O)CNC(=O)CCc1ccccc1)C(=O)N[C@H](CCCc1ccccc1)C(=O)N[C@@H](CCCNC(=N)N)C(=O)O` [Example 92, N-(3-Phenylpropanoyl)-Glycyl-Leucyl-{(R)-2-Amino-5-phenylpentanoyl}-Arginyl-OH] (Hydrocinnamoyl-GL[d(hhPhe)]R-OH), the Ki came out at 750 nM. Consider `CC(C)C[C@H](NC(=O)CNC(=O)[C@H](CCC1CCCCC1)NC(=O)CCCCCN)C(=O)NC(CCCc1ccccc1)C(=O)N[C@@H](CCCNC(=N)N)C(=O)O` (single isomer, unassigned) [Example 138], for which the Ki amounted to 330 nM. As for `CC(C)C[C@H](NC(=O)[C@@H](C)NC(=O)[C@H](CC1CCCCC1)NC(=O)CCCCCN)C(=O)NC(CCCc1ccccc1)C(=O)N[C@@H](CCCNC(=N)N)C(=O)O` (single isomer, unassigned) [Example 127], the Ki was 23300 nM. The same measure for `CC(C)C[C@H](NC(=O)CNC(=O)C(N)CCCc1ccccc1)C(=O)N[C@H](CCCc1ccccc1)C(=O)N[C@@H](CCCNC(=N)N)C(=O)O` (single isomer, unassigned) [Example 105]: 330 nM. On to `CC(C)C[C@H](NC(=O)CNC(=O)[C@@H](CC1CCCCC1)NC(=O)CCCCCN)C(=O)NC(CCCc1ccccc1)C(=O)N[C@@H](CCCNC(=N)N)C(=O)O` (single isomer, unassigned) [Example 34], for which the Ki turned out to be 21600 nM. For the compound `CC(C)C[C@H](NC(=O)CNC(=O)[C@H](CC1CCCCC1)NCCCc1ccccc1)C(=O)N[C@H](CCCc1ccccc1)C(=O)N[C@@H](CCCNC(=N)N)C(=O)O` [Example 77, N-(3-Phenylpropyl)-{(2S)-2-Amino-3-cyclohexylpropanoyl}-Glycyl-Leucyl-{(R)-2-Amino-5-phenylpentanoyl}-Arginyl-OH] (H-[X11]GL[d(hhPhe)]R-OH), the Ki amounted to 50 nM.

Take `CC(C)C[C@H](NC(=O)CNC(=O)[C@H](CC1CCCCC1)NC(=O)CN(C)C(=O)CCCN)C(=O)NC(CCCc1ccccc1)C(=O)N[C@@H](CCCNC(=N)N)C(=O)O` (single isomer, unassigned) [Example 112]: the Ki was 17800 nM.

As for `CC(C)C[C@H](NC(=O)CNC(=O)[C@@H](CC1CCCCC1)NC(=O)CCCCCN)C(=O)NC(CCCc1ccccc1)C(=O)N[C@@H](CCCNC(=N)N)C(=O)O` (single isomer, unassigned) [Example 35], the inhibition constant Ki was determined as 1270 nM. `CC(C)C[C@H](NC(=O)CNC(=O)[C@H](CC1CCCCC1)N(C)C(=O)CCCCN)C(=O)NC(CCCc1ccccc1)C(=O)N[C@@H](CCCNC(=N)N)C(=O)O` (single isomer, unassigned) [Example 37]: the Ki is 3200 nM.

With `CC(C)C[C@H](NC(=O)CNC(=O)[C@@H](N)Cc1c[nH]c2ccccc12)C(=O)N[C@H](CCCc1ccccc1)C(=O)N[C@@H](CCCNC(=N)N)C(=O)O` [Example 130, H-Tryptophanyl-Glycyl-Leucyl-{(R)-2-Amino-5-phenylpentanoyl}-Arginyl-OH] (H-WGL[d(hhPhe)]R-OH), the Ki was found to be 140 nM. With `CC(C)C[C@H](NC(=O)CNC(=O)[C@H](CC1CCCCC1)NC(=O)NCc1ccc(CN)cc1)C(=O)NC(CCCc1ccccc1)C(=O)N[C@@H](CCCNC(=N)N)C(=O)O` (mixture of isomers) [Example 145, N-[N-(4-Aminomethylbenzyl)aminocarbonyl]-{(2S)-2-Amino-3-cyclohexylpropanoyl}-Glycyl-Leucyl-{(R/S)-2-Amino-5-phenylpentanoyl}-Arginyl-OH], the Ki worked out at 7000 nM. Take `CC(C)C[C@H](NC(=O)Cc1c[nH]c2ccccc12)C(=O)N[C@@H](CCCc1ccccc1)C(=O)N[C@@H](CCCNC(=N)N)C(=O)O` [Example 20, N-{Indole-3-acetyl}-Leucyl-{(S)-2-Amino-5-phenylpentanoyl}-Arginyl-OH]: the inhibition constant (Ki) came to 6650 nM. `CC(C)C[C@H](NC(=O)CNC(=O)[C@@H](N)Cc1ccccc1)C(=O)N[C@H](CCCc1ccccc1)C(=O)N[C@@H](CCCNC(=N)N)C(=O)O` [Example 116, H-Phenylalanyl-Glycyl-Leucyl-{(R)-2-Amino-5-phenylpentanoyl}-Arginyl-OH] (H-FGL[d(hhPhe)]R-OH): the inhibition constant Ki came to 630 nM.
